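Where inhibition never reached the appropriate level, the endpoint shown equals the highest concentration tested. Otherwise, values were interpolated linearly from a five-concentration, 48-hour dose response in 96-well plates. Here, GI50 denotes the concentration required for 50% inhibition of growth. TGI is the concentration that stops growth completely.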
What was measured:
Assay in all cases: NCI tumour cell line growth inhibition, 48 h
NCI-H23 lung = test system: NCI-H23 lung
NCI-H460 lung = test system: NCI-H460 lung
NCI-H522 lung = test system: NCI-H522 lung
NCI/ADR-RES ovarian = test system: NCI/ADR-RES ovarian
OVCAR-3 ovarian = test system: OVCAR-3 ovarian
OVCAR-4 ovarian = test system: OVCAR-4 ovarian
OVCAR-5 ovarian = test system: OVCAR-5 ovarian
OVCAR-8 ovarian = test system: OVCAR-8 ovarian
PC-3 prostate = test system: PC-3 prostate
RPMI-8226 leukemia = test system: RPMI-8226 leukemia
RXF 393 renal = test system: RXF 393 renal
SF-268 CNS = test system: SF-268 CNS
SF-295 CNS = test system: SF-295 CNS
SF-539 CNS = test system: SF-539 CNS
SK-MEL-2 melanoma = test system: SK-MEL-2 melanoma
SK-MEL-28 melanoma = test system: SK-MEL-28 melanoma
SK-MEL-5 melanoma = test system: SK-MEL-5 melanoma
SK-OV-3 ovarian = test system: SK-OV-3 ovarian
SNB-19 CNS = test system: SNB-19 CNS
SNB-75 CNS = test system: SNB-75 CNS
SR leukemia = test system: SR leukemia
SW-620 colon = test system: SW-620 colon
T-47D breast = test system: T-47D breast
TK-10 renal = test system: TK-10 renal
U251 CNS = test system: U251 CNS
UACC-257 melanoma = test system: UACC-257 melanoma
UACC-62 melanoma = test system: UACC-62 melanoma
UO-31 renal = test system: UO-31 renal

Cc1ccc(/C(=N/NS(=O)(=O)c2ccc([N+](=O)[O-])cc2)Sc2cc(Cl)c(C)cc2S(N)(=O)=O)cc1
TGI (NCI-H23 lung): > 100 µM
GI50 (NCI-H460 lung): > 100 µM
TGI (NCI-H460 lung): > 100 µM
GI50 (NCI-H522 lung): > 100 µM
TGI (NCI-H522 lung): > 100 µM
GI50 (NCI/ADR-RES ovarian): > 100 µM
TGI (NCI/ADR-RES ovarian): > 100 µM
GI50 (OVCAR-3 ovarian): > 100 µM
TGI (OVCAR-3 ovarian): > 100 µM
GI50 (OVCAR-4 ovarian): > 100 µM
TGI (OVCAR-4 ovarian): > 100 µM
GI50 (OVCAR-5 ovarian): > 100 µM
TGI (OVCAR-5 ovarian): > 100 µM
GI50 (OVCAR-8 ovarian): > 100 µM
TGI (OVCAR-8 ovarian): > 100 µM
GI50 (PC-3 prostate): 12.5 µM
TGI (PC-3 prostate): > 100 µM
GI50 (RPMI-8226 leukemia): 11.9 µM
TGI (RPMI-8226 leukemia): > 100 µM
GI50 (RXF 393 renal): 47.7 µM
TGI (RXF 393 renal): > 100 µM
GI50 (SF-268 CNS): > 100 µM
TGI (SF-268 CNS): > 100 µM
GI50 (SF-295 CNS): > 100 µM
TGI (SF-295 CNS): > 100 µM
GI50 (SF-539 CNS): > 100 µM
TGI (SF-539 CNS): > 100 µM
GI50 (SK-MEL-2 melanoma): > 100 µM
TGI (SK-MEL-2 melanoma): > 100 µM
GI50 (SK-MEL-28 melanoma): > 100 µM
TGI (SK-MEL-28 melanoma): > 100 µM
GI50 (SK-MEL-5 melanoma): > 100 µM
TGI (SK-MEL-5 melanoma): > 100 µM
GI50 (SK-OV-3 ovarian): > 100 µM
TGI (SK-OV-3 ovarian): > 100 µM
GI50 (SNB-19 CNS): > 100 µM
TGI (SNB-19 CNS): > 100 µM
GI50 (SNB-75 CNS): > 100 µM
TGI (SNB-75 CNS): > 100 µM
GI50 (SR leukemia): > 100 µM
TGI (SR leukemia): > 100 µM
GI50 (SW-620 colon): > 100 µM
TGI (SW-620 colon): > 100 µM
GI50 (T-47D breast): > 100 µM
TGI (T-47D breast): > 100 µM
GI50 (TK-10 renal): > 100 µM
TGI (TK-10 renal): > 100 µM
GI50 (U251 CNS): > 100 µM
TGI (U251 CNS): > 100 µM
GI50 (UACC-257 melanoma): > 100 µM
TGI (UACC-257 melanoma): > 100 µM
GI50 (UACC-62 melanoma): > 100 µM
TGI (UACC-62 melanoma): > 100 µM
GI50 (UO-31 renal): > 100 µM
TGI (UO-31 renal): > 100 µM
